From PMC4594923, “Food Polyphenols Fail to Cause a Biologically Relevant Reduction of COX-2 Activity” (PLoS ONE, 2015)
Marks after values point to notes of the source that are not given here.

Columns and labels:
[1] = test system: arachidonic acid (AA) cascade; assay: plasma oxylipin/PG levels in LPS induced sepsis in mice; type: in vivo, C57BL/6N mice;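 further: male C57BL/6N mice given LPS, plasma oxylipins quantified by LC-MS after solid-phase extraction, pretreatment or vehicle given intraperitoneally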
Excerpt: (§1) Twelve week old male C57BL/6N mice (Charles River, Sulzfeld, Germany) were used for all experiments. C57BL/6 male mice (H2^b, 11–13 weeks of age) were obtained from Charles River (Sulzfeld, Germany). Animals were cared for in accordance with the institution’s guidelines for experimental animals and with the guidelines of the American Physiological Society. […] Mice were monitored closely and if they appeared compromised (i.e. inactivity, no intake of food or water) after compound or LPS injection the experiment was terminated.
(§2) Oxylipin levels were analyzed in plasma and tissues by LC-MS following SPE extraction of 200 μl plasma or tissue homogenate (50 mg) on Chromabond C18 ec cartridges (Machery-Nagel, Düren, Germany) [19].
(§3) GraphPad Prism 5.0 (GraphPad Software, San Diego, USA) was used for data analysis, the fitting of dose response curves and calculation of the IC50 values. Statistical differences were determined by Dunnetts test (LPS vs. other groups).

[2] = test system: arachidonic acid (AA) cascade; assay: kidney tissue oxylipin/PG levels in LPS induced sepsis in mice;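 further: male C57BL/6N mice challenged with LPS, kidney taken 24 h later, oxylipins quantified by LC-MS after solid-phase extraction of tissue homogenate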
Excerpt: as §1, §2, §3

[3] = mice, compound i. p. 100 mg/kg bw 2 h before LPS (10 mg/kg bw i. p.), 24 h after LPS, vs. LPS group
[4] = plasma 24 h after LPS treatment, LPS +, mean
[5] = kidney tissue 24 h after LPS treatment, LPS +, mean
[6] = kidney tissue 24 h after LPS treatment, LPS +, mean, < = below LOQ
[7] = mice, compound i. p. 100 mg/kg bw 2 h before LPS, 24 h after LPS, vs. LPS group

Oc1ccc(/C=C/c2cc(O)cc3c2[C@@H](c2cc(O)cc(O)c2)[C@H](c2ccc(O)cc2)O3)cc1 [ε-Viniferin, ε-viniferin]
plasma 8-iPF2α level (non-enzymatically formed autoxidation marker) [1, 3]: high levels | plasma 13,14-dihydro-15-keto-PGE1 level [1, 3]: high levels | plasma 13,14-dihydro-15-keto-PGF2α level [1, 3]: high levels | plasma PGF2α level [1, 3]: high levels | 1a,1b-dihomo-PGF2α concentration in plasma [1, 4]: 0.42^† nM | 4,5-DiHDPE concentration in plasma [1, 4]: 23^‡ nM | 4-HDHA concentration in plasma [1, 4]: 1.7 nM | 5(6)-EpETrE concentration in plasma [1, 4]: 11 nM | 5,6-DiHETrE concentration in plasma [1, 4]: 1.3^‡ nM | 5-HEPE concentration in plasma [1, 4]: 0.25^* nM | 5-HETE concentration in plasma [1, 4]: 2.8 nM | 5-iPF2α concentration in plasma [1, 4]: 0.91^‡ nM | 5-oxo-ETE concentration in plasma [1, 4]: 4.7 nM | 6-keto-PGF1α concentration in plasma [1, 4]: 2.8 nM | 7,8-DiHDPE concentration in plasma [1, 4]: 1.1 nM | 7-HDHA concentration in plasma [1, 4]: 0.55 nM | 8(9)-EpETrE concentration in plasma [1, 4]: 2.5 nM | 8,9-DiHETrE concentration in plasma [1, 4]: 2.5 nM | 8-HDHA concentration in plasma [1, 4]: 3.8 nM | 8-HEPE concentration in plasma [1, 4]: 1.2^† nM | 8-HETE concentration in plasma [1, 4]: 12^* nM | 8-iPF2a concentration in plasma [1, 4]: 0.30^* nM | 9(10)-EpODE concentration in plasma [1, 4]: 6.5 nM | 9(10)-EpOME concentration in plasma [1, 4]: 61 nM | 9(10)-Epoxystearic acid concentration in plasma [1, 4]: 37 nM | 9,10,13-TriHOME concentration in plasma [1, 4]: 2.2 nM | 9,10-DiHODE concentration in plasma [1, 4]: 4.5 nM | 9,10-DiHOME concentration in plasma [1, 4]: 30 nM | 9,10-Dihydroxystearic acid concentration in plasma [1, 4]: 10 nM | 9,12,13-TriHOME concentration in plasma [1, 4]: 17 nM | 9-HODE concentration in plasma [1, 4]: 210 nM | 9-HOTrE concentration in plasma [1, 4]: 12 nM | 9-oxo-ODE concentration in plasma [1, 4]: 38 nM | 10(11)-EpDPE concentration in plasma [1, 4]: 3.9 nM | 10,11-DiHDPE concentration in plasma [1, 4]: 0.62^* nM | 10-HDHA concentration in plasma [1, 4]: 27^† nM | 11(12)-EpETrE concentration in plasma [1, 4]: 2.6 nM | 11,12-DiHETE concentration in plasma [1, 4]: 0.38^‡ nM | 11,12-DiHETrE concentration in plasma [1, 4]: 2.0 nM | 11-HDHA concentration in plasma [1, 4]: 0.91 nM | 11-HETE concentration in plasma [1, 4]: 3.8^* nM | 12(13)-EpODE concentration in plasma [1, 4]: 3.3 nM | 12(13)-EpOME concentration in plasma [1, 4]: 48 nM | 12,13-DiHODE concentration in plasma [1, 4]: 2.8 nM | 12,13-DiHOME concentration in plasma [1, 4]: 110^* nM | 12-HEPE concentration in plasma [1, 4]: 239^† nM | 12-HETE concentration in plasma [1, 4]: 1700^† nM | 13(14)-EpDPE concentration in plasma [1, 4]: 2.9 nM | 13,14-DiHDPE concentration in plasma [1, 4]: 0.55^* nM | 13,14-dihydro-15-keto-PGE1 concentration in plasma [1, 4]: 0.34^† nM | 13,14dihydro-15-keto-PGF2α concentration in plasma [1, 4]: 2.1^‡ nM | 13-HDHA concentration in plasma [1, 4]: 3.9^* nM | 13-HODE concentration in plasma [1, 4]: 540 nM | 13-HOTrE concentration in plasma [1, 4]: 61 nM | 13-oxo-ODE concentration in plasma [1, 4]: 8.3 nM | 14(15)-EpETE concentration in plasma [1, 4]: 0.18^* nM | 14(15)-EpETrE concentration in plasma [1, 4]: 2.4 nM | 14,15-DiHETE concentration in plasma [1, 4]: 0.36 nM | 14,15-DiHETrE concentration in plasma [1, 4]: 2.5 nM | 14-HDHA concentration in plasma [1, 4]: 800^† nM | 15(16)-EpODE concentration in plasma [1, 4]: 2.9 nM | 15(S)-HETrE concentration in plasma [1, 4]: 5.7^‡ nM | 15,16-DiHODE concentration in plasma [1, 4]: 53 nM | 15-HEPE concentration in plasma [1, 4]: 1.5^‡ nM | 15-HETE concentration in plasma [1, 4]: 7.9^† nM | 15-oxo-ETE concentration in plasma [1, 4]: 0.34 nM | 16(17)-EpDPE concentration in plasma [1, 4]: 2.8 nM | 16,17-DiHDPE concentration in plasma [1, 4]: 1.1^† nM | 16-HDHA concentration in plasma [1, 4]: 1.1 nM | 17(18)-EpETE concentration in plasma [1, 4]: 1.1 nM | 17,18-DiHETE concentration in plasma [1, 4]: 1.8 nM | 17-HDHA concentration in plasma [1, 4]: 39^† nM | 18-HEPE concentration in plasma [1, 4]: 0.81 nM | 19(20)-EpDPE concentration in plasma [1, 4]: 13 nM | 19,20-DiHDPE concentration in plasma [1, 4]: 14 nM | 20-HDHA concentration in plasma [1, 4]: 3.6 nM | 20-HEPE concentration in plasma [1, 4]: 5.7^† nM | 20-HETE concentration in plasma [1, 4]: 2.7^‡ nM | EKODE concentration in plasma [1, 4]: 16 nM | PGD2 concentration in plasma [1, 4]: 0.90 nM | PGE2 concentration in plasma [1, 4]: 1.6 nM | PGF1α concentration in plasma [1, 4]: 0.25^‡ nM | PGF2α concentration in plasma [1, 4]: 0.77^‡ nM | TXB2 concentration in plasma [1, 4]: 4.2 nM | 1a,1b-dihomo-PGF2α [2, 5]: 3.2^† nM | 4,5-DiHDPE [2, 5]: 26^‡ nM | 4-HDHA [2, 5]: 22 nM | 5(6)-EpETrE [2, 5]: 70 nM | 5,6-DiHETrE [2, 5]: 2.2^‡ nM | 5-HEPE [2, 5]: 1.1 nM | 5-HETE [2, 5]: 13 nM | 5-oxo-ETE [2, 5]: 24 nM | 6-keto-PGF1α [2, 5]: 108^‡ nM | 7,8-DiHDPE [2, 5]: 1.9 nM | 7-HDHA [2, 5]: 2.7 nM | 8(9)-EpETrE [2, 5]: 15 nM | 8,9-DiHETrE [2, 5]: 2.2^* nM | 8-HDHA [2, 5]: 18^* nM | 8-HETE [2, 5]: 4.4 nM | 8-iPF2a [2, 5]: 2.7^† nM | 9(10)-EpODE [2, 5]: 9.9 nM | 9(10)-EpOME [2, 5]: 110 nM | 9(10)-Epoxystearic acid [2, 5]: 64 nM | 9,10,13-TriHOME [2, 5]: 10 nM | 9,10-DiHODE [2, 5]: 2.0 nM | 9,10-DiHOME [2, 5]: 27 nM | 9,10-Dihydroxystearic acid [2, 5]: 87 nM | 9,12,13-TriHOME [2, 5]: 69^‡ nM | 9-HETE [2, 5]: 3.6 nM | 9-HODE [2, 5]: 380^† nM | 9-HOTrE [2, 5]: 5.8 nM | 9-oxo-ODE [2, 5]: 73 nM | 10(11)-EpDPE [2, 5]: 27 nM | 10,11-DiHDPE [2, 5]: 2.3 nM | 10-HDHA [2, 5]: 3.6 nM | 11(12)-EpETE [2, 5]: 1.4 nM | 11(12)-EpETrE [2, 5]: 35 nM | 11,12-DiHETrE [2, 5]: 1.8^‡ nM | 11-HDHA [2, 5]: 5.4 nM | 11-HETE [2, 5]: 22^† nM | 12(13)-EpODE [2, 5]: 4.3 nM | 12(13)-EpOME [2, 5]: 80 nM | 12,13-DiHOME [2, 5]: 32^† nM | 12-HEPE [2, 5]: 5.0 nM | 12-HETE [2, 5]: 47 nM | 13(14)-EpDPE [2, 5]: 22 nM | 13,14-DiHDPE [2, 5]: 1.4 nM | 13,14-dihydro-15-keto-PGF2α [2, 5]: 4.6^‡ nM | 13-HDHA [2, 5]: 7.7 nM | 13-HODE [2, 5]: 310^† nM | 13-HOTrE [2, 5]: 6.0 nM | 13-oxo-ODE [2, 5]: 8.3 nM | 14(15)-EpETE [2, 5]: 1.7 nM | 14(15)-EpETrE [2, 5]: 29 nM | 14,15-DiHETE [2, 5]: 0.38^‡ nM | 14,15-DiHETrE [2, 5]: 3.4^‡ nM | 14-HDHA [2, 5]: 20 nM | 15(16)-EpODE [2, 5]: 22 nM | 15(S)-HETrE [2, 5]: 8.0^‡ nM | 15,16-DiHODE [2, 5]: 22 nM | 15-HETE [2, 5]: 30^* nM | 15-oxo-ETE [2, 5]: 9.3 nM | 16(17)-EpDPE [2, 5]: 21 nM | 16,17-DiHDPE [2, 5]: 2.7^‡ nM | 16-HDHA [2, 5]: 4.9^* nM | 17(18)-EpETE [2, 5]: 2.4 nM | 17,18-DiHETE [2, 5]: 1.8^‡ nM | 17-HDHA [2, 5]: 15 nM | 18-HEPE [2, 5]: 1.5 nM | 19(20)-EpDPE [2, 5]: 36 nM | 19,20-DiHDPE [2, 5]: 31^‡ nM | 20-HDHA [2, 5]: 17 nM | 20-HEPE [2, 5]: 11 nM | EKODE [2, 5]: 92^‡ nM | PGD2 [2, 5]: 19^† nM | PGE1 [2, 5]: 8.3 nM | PGE2 [2, 5]: 110 nM | PGF1α [2, 5]: 7.7^‡ nM | PGF2α [2, 5]: 63^‡ nM | TXB2 [2, 5]: 4.9^‡ nM | 5,6-DiHETE [2, 6]: < 0.25 nM | 5-iPF2α [2, 6]: 1.5^‡ nM | 8(9)-EpETE [2, 6]: 1.2 nM | 12,13-DiHODE [2, 6]: < 2.0 nM | 13,14-dihydro-15-keto-PGE1 [2, 6]: 0.49 nM | 20-HETE [2, 6]: 3.6^* nM | PGD1 [2, 6]: 0.84^† nM | PGF2α ([2]; kidney tissue 24 h after LPS treatment, LPS +, mean, second listing of PGF2α (r9)): 63 nM | kidney 6-keto-PGF1α level [2, 7]: elevated | kidney 8-iPGF2α level [2, 7]: elevated | kidney 13,14-dihydro-15-keto-PGE1 level [2, 7]: elevated
